Measurements: ChEMBL document CHEMBL1201862, “PubChem BioAssay data set” (2004)
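These data come from cells grown in 96-well plates and exposed to compound for 48 hours at five concentrations. Abbreviation: GI50, concentration required for 50% inhibition of growth.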 Active and inactive are the calls of the source. Rule as the data show it: active = GI50 up to about 1.1 µM and inactive = higher.

Tests used:
Experiment in all cases: inhibition of tumour cell growth, NCI panel, 48 h
[1] = test system: HCT-116
[2] = test system: KM12
[3] = test system: M14
[4] = test system: HCT-15
[5] = test system: SR
[6] = test system: UACC-257
[7] = test system: SN12C
[8] = test system: COLO 205
[9] = test system: OVCAR-8
[10] = test system: UACC-62
[11] = test system: OVCAR-4
[12] = test system: CAKI-1
[13] = test system: LOX IMVI
[14] = test system: A549
[15] = test system: U-251
[16] = test system: SW-620
[17] = test system: HT-29
[18] = test system: SNB-19
[19] = test system: MDA-MB-231

## Cc1cc(C)cc(NC(N)=S)c1
[1]
  GI50: 35.5 µM (inactive)
[2]
  GI50: > 100 µM (inactive)
[3]
  GI50: > 100 µM (inactive)
[4]
  GI50: 17.9 µM
[5]
  GI50: 33.5 µM (inactive)
[6]
  GI50: 36.4 µM (inactive)
[7]
  GI50: > 100 µM (inactive)
[8]
  GI50: 26.7 µM (inactive)
[9]
  GI50: > 100 µM (inactive)
[10]
  GI50: > 100 µM (inactive)
[11]
  GI50: > 100 µM (inactive)
[12]
  GI50: > 100 µM (inactive)
[13]
  GI50: 29.1 µM (inactive)
[14]
  GI50: > 100 µM (inactive)
[15]
  GI50: 38.6 µM (inactive)
[16]
  GI50: 4.06 µM (inactive)
[17]
  GI50: 40.9 µM (inactive)
[18]
  GI50: > 100 µM (inactive)

## Cc1c2c(c(C)c3c1[nH]c1ccccc13)CN(C)CC2
[1]
  GI50: 16 µM (inactive)
[2]
  GI50: 16.6 µM (inactive)
[3]
  GI50: 15.1 µM (inactive)
[4]
  GI50: 15.3 µM
[5]
  GI50: 24.8 µM (inactive)
[6]
  GI50: 17.2 µM (inactive)
[7]
  GI50: 20.6 µM (inactive)
[8]
  GI50: 15 µM (inactive)
[9]
  GI50: 16.4 µM (inactive)
[10]
  GI50: 18 µM (inactive)
[11]
  GI50: 23.4 µM (inactive)
[12]
  GI50: 13.2 µM (inactive)
[13]
  GI50: 15.5 µM (inactive)
[14]
  GI50: 17.9 µM (inactive)
[15]
  GI50: 12.1 µM (inactive)
[16]
  GI50: 15.3 µM (inactive)
[17]
  GI50: 16.7 µM (inactive)
[18]
  GI50: 27.4 µM (inactive)

## CC(=O)/C(=C\NC(=S)Nc1ccc(S(N)(=O)=O)cc1)C(=O)Nc1ccccc1C
[1]
  GI50: 40.5 µM (inactive)
[2]
  GI50: 43.3 µM (inactive)
[3]
  GI50: 37.8 µM (inactive)
[4]
  GI50: 41.3 µM
[6]
  GI50: 71.6 µM (inactive)
[7]
  GI50: 71 µM (inactive)
[8]
  GI50: 18.5 µM (inactive)
[9]
  GI50: 72.9 µM (inactive)
[19]
  GI50: 34.2 µM (inactive)
[10]
  GI50: 35.2 µM (inactive)
[11]
  GI50: 36.9 µM (inactive)
[12]
  GI50: 37.8 µM (inactive)
[13]
  GI50: 20 µM (inactive)
[14]
  GI50: 60.4 µM (inactive)
[15]
  GI50: 45 µM (inactive)
[16]
  GI50: 37.4 µM (inactive)
[17]
  GI50: 45.2 µM (inactive)
[18]
  GI50: 84.3 µM (inactive)

## NS(=O)(=O)c1nnc(NC(=S)NC(=O)Nc2ccc(Cl)c(Cl)c2)s1
[1]
  GI50: 16.9 µM (inactive)
[2]
  GI50: 18.7 µM (inactive)
[3]
  GI50: 17.9 µM (inactive)
[4]
  GI50: 19.7 µM
[6]
  GI50: 23.1 µM (inactive)
[7]
  GI50: 26.7 µM (inactive)
[8]
  GI50: 19.5 µM (inactive)
[9]
  GI50: 22.1 µM (inactive)
[19]
  GI50: 30.4 µM (inactive)
[10]
  GI50: 17.5 µM (inactive)
[11]
  GI50: 19.5 µM (inactive)
[12]
  GI50: 23.4 µM (inactive)
[13]
  GI50: 17.1 µM (inactive)
[14]
  GI50: 32 µM (inactive)
[15]
  GI50: 36.3 µM (inactive)
[16]
  GI50: 22.5 µM (inactive)
[17]
  GI50: 25.5 µM (inactive)
[18]
  GI50: 28.3 µM (inactive)

## Cc1ccc(/C(Cl)=C/C=C(C#N)C#N)cc1
[1]
  GI50: 1.83 µM (inactive)
[2]
  GI50: 5.22 µM (inactive)
[3]
  GI50: 2.51 µM (inactive)
[4]
  GI50: 2.1 µM
[5]
  GI50: 1.37 µM (inactive)
[6]
  GI50: 2.52 µM (inactive)
[7]
  GI50: 3.72 µM (inactive)
[8]
  GI50: 3.31 µM (inactive)
[9]
  GI50: 3.16 µM (inactive)
[19]
  GI50: 2.64 µM (inactive)
[10]
  GI50: 4.51 µM (inactive)
[11]
  GI50: 3.22 µM (inactive)
[12]
  GI50: 3.64 µM (inactive)
[13]
  GI50: 1.17 µM (inactive)
[14]
  GI50: 21.9 µM (inactive)
[15]
  GI50: 4.18 µM (inactive)
[16]
  GI50: 1.91 µM (inactive)
[17]
  GI50: 2.59 µM (inactive)
[18]
  GI50: 7.62 µM (inactive)

## CCOC(=O)c1nc2ccc(C(F)(F)F)cc2nc1Oc1ccc(C(=O)OC)cc1
[1]
  GI50: > 100 µM (inactive)
[2]
  GI50: 56.4 µM (inactive)
[3]
  GI50: 57.1 µM (inactive)
[4]
  GI50: > 100 µM
[5]
  GI50: > 100 µM (inactive)
[6]
  GI50: > 100 µM (inactive)
[8]
  GI50: > 100 µM (inactive)
[9]
  GI50: > 100 µM (inactive)
[19]
  GI50: 80.7 µM (inactive)
[10]
  GI50: 59.4 µM (inactive)
[11]
  GI50: 98.4 µM (inactive)
[12]
  GI50: > 100 µM (inactive)
[13]
  GI50: > 100 µM (inactive)
[15]
  GI50: 36.1 µM (inactive)
[16]
  GI50: > 100 µM (inactive)
[17]
  GI50: 81.7 µM (inactive)
[18]
  GI50: 46.8 µM (inactive)

## CN1CN(c2ccccc2)C2(CCN(Cc3nc4ccccc4s3)CC2)C1=O
[1]
  GI50: 14.8 µM (inactive)
[3]
  GI50: 13.5 µM (inactive)
[4]
  GI50: 18.8 µM
[5]
  GI50: 14.8 µM (inactive)
[6]
  GI50: 16.6 µM (inactive)
[7]
  GI50: 17.5 µM (inactive)
[8]
  GI50: 18.1 µM (inactive)
[9]
  GI50: 14.4 µM (inactive)
[19]
  GI50: 14.1 µM (inactive)
[10]
  GI50: 16 µM (inactive)
[11]
  GI50: 18.6 µM (inactive)
[12]
  GI50: 20.1 µM (inactive)
[13]
  GI50: 17.3 µM (inactive)
[14]
  GI50: 17.3 µM (inactive)
[15]
  GI50: 16.1 µM (inactive)
[17]
  GI50: 17 µM (inactive)
[18]
  GI50: 15 µM (inactive)

## CC(=O)OCC1OC(N2C(=O)C(=O)c3cc(C)ccc32)C(OC(C)=O)C(OC(C)=O)C1OC(C)=O (configuration not stated)
[1]
  GI50: 59.7 µM (inactive)
[2]
  GI50: > 100 µM (inactive)
[3]
  GI50: 66.5 µM (inactive)
[4]
  GI50: 52.8 µM
[5]
  GI50: 15.5 µM (inactive)
[6]
  GI50: > 100 µM (inactive)
[7]
  GI50: 65.6 µM (inactive)
[8]
  GI50: 94.6 µM (inactive)
[9]
  GI50: 63.4 µM (inactive)
[10]
  GI50: 37.4 µM (inactive)
[11]
  GI50: > 100 µM (inactive)
[12]
  GI50: > 100 µM (inactive)
[13]
  GI50: 17.1 µM (inactive)
[14]
  GI50: > 100 µM (inactive)
[15]
  GI50: > 100 µM (inactive)
[16]
  GI50: > 100 µM (inactive)
[17]
  GI50: 37.2 µM (inactive)
[18]
  GI50: > 100 µM (inactive)

## CC1(C)OC2C(O)CN3CCS[C@H]3C2O1 (some centres not stated)
[1]
  GI50: > 100 µM (inactive)
[2]
  GI50: > 100 µM (inactive)
[3]
  GI50: > 100 µM (inactive)
[4]
  GI50: > 100 µM
[5]
  GI50: > 100 µM (inactive)
[6]
  GI50: > 100 µM (inactive)
[8]
  GI50: > 100 µM (inactive)
[9]
  GI50: > 100 µM (inactive)
[19]
  GI50: > 100 µM (inactive)
[10]
  GI50: > 100 µM (inactive)
[11]
  GI50: > 100 µM (inactive)
[12]
  GI50: > 100 µM (inactive)
[13]
  GI50: > 100 µM (inactive)
[14]
  GI50: > 100 µM (inactive)
[15]
  GI50: > 100 µM (inactive)
[16]
  GI50: > 100 µM (inactive)
[17]
  GI50: > 100 µM (inactive)
[18]
  GI50: > 100 µM (inactive)

## O=S(=O)(O)c1cc(O)c2c(O)c(/N=N/c3ccc(/C=C/c4ccc(/N=N/c5c(S(=O)(=O)O)cc6cc(S(=O)(=O)O)cc(O)c6c5O)cc4S(=O)(=O)O)c(S(=O)(=O)O)c3)c(S(=O)(=O)O)cc2c1
[1]
  GI50: > 100 µM (inactive)
[2]
  GI50: 32.5 µM (inactive)
[3]
  GI50: > 100 µM (inactive)
[4]
  GI50: > 100 µM
[5]
  GI50: > 100 µM (inactive)
[6]
  GI50: > 100 µM (inactive)
[7]
  GI50: > 100 µM (inactive)
[8]
  GI50: > 100 µM (inactive)
[9]
  GI50: > 100 µM (inactive)
[10]
  GI50: > 100 µM (inactive)
[11]
  GI50: > 100 µM (inactive)
[12]
  GI50: > 100 µM (inactive)
[13]
  GI50: > 100 µM (inactive)
[14]
  GI50: > 100 µM (inactive)
[15]
  GI50: > 100 µM (inactive)
[16]
  GI50: > 100 µM (inactive)
[17]
  GI50: > 100 µM (inactive)
[18]
  GI50: > 100 µM (inactive)

## O=C1C2C3CCC(C2C(=O)N1CO)C1C2C(=O)N(CO)C(=O)C2C31 (configuration not stated)
[1]
  GI50: 28.2 µM (inactive)
[2]
  GI50: > 89.3 µM (inactive)
[3]
  GI50: > 66.7 µM (inactive)
[4]
  GI50: 26.5 µM
[5]
  GI50: 13.4 µM (inactive)
[6]
  GI50: > 100 µM (inactive)
[7]
  GI50: > 47.2 µM (inactive)
[8]
  GI50: 40.4 µM (inactive)
[9]
  GI50: 32.4 µM (inactive)
[10]
  GI50: 53.1 µM (inactive)
[11]
  GI50: > 43.9 µM (inactive)
[12]
  GI50: > 96.6 µM (inactive)
[13]
  GI50: 37.5 µM (inactive)
[14]
  GI50: 31 µM (inactive)
[15]
  GI50: > 40.3 µM (inactive)
[16]
  GI50: 26.2 µM (inactive)
[17]
  GI50: 58.7 µM (inactive)
[18]
  GI50: > 100 µM (inactive)
